From patent US20020037885A1, “Therapeutic compounds” (priority 1999, published 2002)
Read-outs that look alike come from different tables or passages of the source.

Legend:
[1] = tested on: marble burying behaviour in mice; test: Mouse Marble Burying Assay (BUR); type: in vivo; conditions: for ED50: Mus musculus, sc
Protocol: This assay was carried out essentially according to the procedure described by Treit et al. (1981) Pharmacol Biochem Behav; 15; 619-626.
The results are presented as BUR ED50 (sc). This is the effective dose causing 50% inhibition of burying compared to control mice.

[2] = effective dose causing 50% inhibition of burying compared to control mice
[3] = effective dose causing 50% inhibition of burying compared to control mice, read-out: BUR ED50 (SC)

| melting point [°C] | SMILES | further results |
| --- | --- | --- |
| 179 to 186 | C=CCC(N)c1ccccc1-c1noc2cc(C(F)(F)F)ccc12.O=C(O)/C=C/C(=O)O (centres unmarked) | – |
| 170 to 200 | C=C(C)CC(N)c1ccccc1-c1noc2ccccc12.Cl (centres unmarked) | – |
| 148 to 150 | C=CCC(N)c1cccc(-c2noc3ccccc23)c1.O=C(O)/C=C\C(=O)O (centres unmarked) | – |
| 192 to 195 | C=CCC(N)c1ccccc1-c1noc2cc(F)ccc12.Cl (centres unmarked) | – |
| 176 to 180 | C=CCC(N)c1cc(F)ccc1-c1noc2ccccc12.O=C(O)/C=C/C(=O)O (centres unmarked) | – |
| 174 to 177 | C=CCC(N)c1cc(Cl)ccc1-c1noc2ccccc12.O=C(O)/C=C/C(=O)O (centres unmarked) | – |
| 168 to 173 | C=CCC(N)c1cc(F)ccc1-c1noc2ccc(F)cc12.O=C(O)/C=C/C(=O)O (centres unmarked) | – |
| 164 to 169 | C=CCC(N)c1ccc(F)cc1-c1noc2ccc(F)cc12.O=C(O)/C=C/C(=O)O (centres unmarked) | – |
| 162 to 164 | C=CCC(N)c1cc(F)ccc1-c1noc2cc(Cl)ccc12.O=C(O)/C=C\C(=O)O (centres unmarked) | – |
| 148 to 150 | C=CC[C@@H](N)c1ccccc1-c1noc2cc(F)ccc12.Cl | – |
| 104 to 109 | C=CC[C@@H](N)c1ccc(F)cc1-c1noc2ccccc12.O=C(O)/C=C/C(=O)O | – |
| 171 to 173 | C=CC[C@@H](N)c1cc(F)ccc1-c1noc2ccccc12.O=C(O)/C=C/C(=O)O | – |
| 97 to 108 | C=CC[C@H](N)c1ccc(F)cc1-c1noc2ccccc12.O=C(O)/C=C/C(=O)O | – |
| 225 to 227 | C=CCC(N)c1ccccc1-c1cc2ccccc2o1.Cl (centres unmarked) | – |
| 205 to 208 | C=CCC(N)c1ccccc1-c1ccc(-c2ccccc2)c(F)c1.O=C(O)/C=C/C(=O)O (centres unmarked) | – |
| 183 to 185 | C=CCC(N)c1ccccc1-c1ccoc1.O=C(O)/C=C/C(=O)O (centres unmarked) | – |
| 181 to 183 | C=CCC(N)c1ccccc1Cc1ccccc1.O=C(O)/C=C/C(=O)O (centres unmarked) | – |
| 189 to 191 | C=CCC(N)c1ccccc1-c1ccccc1Cl.O=C(O)/C=C/C(=O)O (centres unmarked) | – |
| 209 to 211 | C=CCC(N)c1ccccc1-c1ccc(C)cc1F.O=C(O)/C=C/C(=O)O (centres unmarked) | – |
| 194 to 196 | C=CCC(N)c1ccccc1-c1ccc(C)c(F)c1.O=C(O)/C=C/C(=O)O (centres unmarked) | – |
| 192 to 194 | C=CCC(N)c1ccccc1-c1ccc(Cl)c(F)c1.O=C(O)/C=C/C(=O)O (centres unmarked) | – |
| 163 to 165 | C=CCC(N)c1ccccc1Cc1cccc(OC)c1.O=C(O)/C=C/C(=O)O (centres unmarked) | – |
| 172 to 174 | C=CCC(N)c1ccccc1Cc1ccccc1OC.O=C(O)/C=C/C(=O)O (centres unmarked) | – |
| 185 to 187 | C=CCC(N)c1ccccc1-c1csc2ccccc12.O=C(O)/C=C\C(=O)O (centres unmarked) | – |
| 202 to 204 | C=CCC(N)c1ccccc1-c1nc2ccccc2o1.O=C(O)/C=C/C(=O)O (centres unmarked) | – |
| 240 to 242 | C=CCC(N)c1ccccc1-c1nc2ccccc2s1.Cl (centres unmarked) | – |

| melting point [°C] | SMILES | further results |
| --- | --- | --- |
| 106 to 108 | C=CCC(N)c1ccccc1-c1cc2ccccc2s1.Cl (centres unmarked) | – |
| 104 to 106 | C=CCC(N)c1ccccc1-c1cc2cc(F)ccc2s1.Cl (centres unmarked) | – |
| 226 to 228 | C=CCC(N)c1ccccc1-c1cc2cc(Cl)ccc2o1.Cl (centres unmarked) | – |
| 173 to 178 | C=CCC(N)C1(c2noc3ccccc23)CC=CS1.O=C(O)/C=C/C(=O)O (centres unmarked) | – |
| 158 to 165 | C=CCC(N)C1(c2noc3ccccc23)CC=CO1.O=C(O)/C=C/C(=O)O (centres unmarked) | – |
| 161 to 164 | C=CCC(N)c1cc(-c2noc3ccccc23)cs1.O=C(O)/C=C/C(=O)O (centres unmarked) | – |
| 182 to 189 | C=CCC(N)c1ccc(-c2noc3ccccc23)s1.O=C(O)/C=C/C(=O)O (centres unmarked) | – |
| 210 to 216 | C=CCC(N)c1oc2ccccc2c1-c1noc2ccccc12.O=C(O)/C=C/C(=O)O (centres unmarked) | – |
| 190 to 192 | C=CCC(N)c1ccccc1-c1cc(F)ccc1C.O=C(O)/C=C/C(=O)O (centres unmarked) | – |
| 198 to 200 | C=CCC(N)c1ccccc1-c1ccc(C)cc1.O=C(O)/C=C/C(=O)O (centres unmarked) | – |
| 201 to 203 | C=CCC(N)c1ccccc1-c1ccc(F)cc1.O=C(O)/C=C/C(=O)O (centres unmarked) | – |
| 225 to 226 | C=CCC(N)c1ccccc1-c1ccccc1F.O=C(O)/C=C/C(=O)O (centres unmarked) | – |
| 179 to 184 | C=CCC(N)c1ccccc1-c1cc(Cl)ccc1C.O=C(O)/C=C/C(=O)O (centres unmarked) | – |
| 192 to 196 | C=CCC(N)c1ccccc1-c1cccc(Cl)c1C.O=C(O)/C=C/C(=O)O (centres unmarked) | – |
| 160 to 165 | C=CCC(N)c1ccccc1-c1coc2ccccc12.Cl (centres unmarked) | – |
| 165 to 180 | C=CCC(N)c1ccccc1-c1cc(-c2ccccc2)on1.O=C(O)/C=C/C(=O)O (centres unmarked) | – |
| 130 to 138 | C=CCC(N)c1ccccc1-c1cc(C)on1.O=C(O)/C=C\C(=O)O (centres unmarked) | – |
| 236 to 240 | C=CCC(N)c1ccccc1-c1ccccc1OC.Cl (centres unmarked) | – |
| 196 to 197 | C=CCC(N)c1ccccc1-c1cccs1.O=C(O)/C=C/C(=O)O (centres unmarked) | – |
| 175 | CNC(Cc1ccccc1)c1ccccc1-c1noc2ccccc12.Cl (centres unmarked) | – |
| 194 to 197 | C=CCC(N)c1ccccc1-c1cnc2ccccc2c1.O=C(O)/C=C/C(=O)O (centres unmarked) | – |
| 75 to 77 | C=CCC(N)c1ccccc1N1C=CC=NC1.O=C(O)/C=C/C(=O)O (centres unmarked) | – |
| 150 to 175 | C=CCC(N)c1ccccc1-c1ccon1.O=C(O)/C=C/C(=O)O (centres unmarked) | – |
| 166 to 174 | C=CC[C@H](N)c1ccccc1-c1noc2cc(F)ccc12.Cl | – |
| 190 | CN(C)Cc1ccccc1-c1noc2ccccc12.Cl | – |
| 230 | CNCc1ccccc1-c1noc2ccccc12.Cl | – |

| melting point [°C] | SMILES | further results |
| --- | --- | --- |
| 176 | C=CCNCc1ccccc1-c1noc2ccccc12.Cl | – |
| 184 | COc1ccccc1CNCc1ccccc1-c1noc2ccccc12.O=C(O)C(=O)O | – |
| 154 | Cl.Cl.c1cncc(CNCc2ccccc2-c2noc3ccccc23)c1 | – |
| 233 | Cl.NCc1ccccc1-c1noc2ccccc12 | – |
| > 250 | C#CCC(N)c1ccccc1-c1noc2ccccc12.O=C(O)C(=O)O (centres unmarked) | – |
| 209 to 214 | C#CCC(N)c1ccccc1-c1noc2cc(Cl)ccc12.Cl (centres unmarked) | – |
| 132 to 135 | CC(C)=CCC(N)c1ccccc1-c1noc2ccccc12.O=C(O)/C=C\C(=O)O (centres unmarked) | – |
| 203 to 210 | NC(CCCC(F)(F)F)c1ccccc1-c1noc2ccccc12.O=C(O)/C=C/C(=O)O (centres unmarked) | – |
| 209 to 214 | CCCCC(N)c1ccccc1-c1noc2cc(Cl)ccc12.Cl (centres unmarked) | – |
| 118 to 126 | CCCC(N)c1ccccc1-c1noc2ccccc12.Cl (centres unmarked) | – |
| 174 to 184 | CC(C)CC(N)c1ccccc1-c1noc2cc(F)ccc12.O=C(O)/C=C/C(=O)O (centres unmarked) | – |
| – | C#CCC(N)c1ccccc1-c1noc2cc(Cl)ccc12.C#CCC(N)c1ccccc1-c1noc2cc(Cl)ccc12.O=C(O)/C=C/C(=O)O (single isomer, unassigned; (-)) [13(5), (−)-2-(6-chloro-1,2-benzisoxazol-3-yl)-α-2-propynyl-benzenemethanamine (E)-butenedioate (2:1 salt)] | BUR ED50 (SC) [1, 2]: 0.4 mg/kg |
| 209 to 214 | C=CCC(N)c1ccccc1-c1noc2ccc(F)cc12.Cl (stereo not drawn) [11(3), 2-(5-fluoro-1,2-benzisoxazol-3-yl)-α-2-propenyl-benzenemethanamine hydrochloride] | ED50 [1, 3]: 2.68 mg/kg |
| 144 to 159 | C=CC[C@@H](N)c1ccccc1-c1noc2cc(Cl)ccc12.Cl [12(2), (R)-(+)-2-(6-chloro-1,2-benzisoxazol-3-yl)-α-2-propenyl-benzenemethanamine hydrochloride] | ED50 [1, 3]: 3.4 mg/kg |
| 214 to 218 | C=CCC(N)c1ccccc1-c1ccccc1.Cl (stereo not drawn) [15 (4), 2-phenyl-α-2-propenyl-benzenemethanamine hydrochloride] | ED50 ([1]; Table 2, read-out: BUR sc ED50(mg/kg)): 8.6 mg/kg |
| – | C=CCC(N)c1ccccc1-c1cccc2ccccc12.Cl (stereo not drawn) [15 (6), 2-(napth-1-yl)-α-2-propenyl-benzenemethanamine hydrochloride] | BUR sc ED50(mg/kg) ([1]; Table 2): 11.6 mg/kg |
| – | Cl.NC(CC1CC1)c1ccccc1-c1noc2ccccc12 (stereo not drawn) [36(6), 2-(1,2-benzisoxazol-3-yl)-α-(cyclopropylmethyl)-benzenemethanamine hydrochloride] | ED50 [1, 3]: 1.5 mg/kg |
| 165 to 170 | C#CCC(N)c1ccccc1-c1noc2ccccc12.O=C(O)/C=C/C(=O)O (centres unmarked) [Example 12(5)] | – |
| 161 to 169 | C#CCC(N)c1ccccc1-c1noc2ccccc12.O=C(O)/C=C/C(=O)O (centres unmarked) [Example 13(4)] | – |
| 153 | c1ccc(CNC(Cc2ccccc2)c2ccccc2-c2noc3ccccc23)cc1 (stereo not drawn) [Example 16(2), α-[2-(1,2-benzisoxazol-3-yl)phenyl]-N-benzyl-benzeneethanamine] | – |
| 138 | c1ccc(-c2noc3ccccc23)c(CNCc2ccccc2-c2noc3ccccc23)c1 [Example 22, 2-(1,2-Benzisoxazol-3-yl)-N-[[2-(1,2-benzisoxazol-3-yl)phenyl]methyl]-benzenemethanamine] | – |
| 242 to 268 | C1=CCC(c2ccccc2-c2noc3ccccc23)NC1 (centres unmarked) [Example 36(11), 2-[2-(1,2-benzisoxazol-3-yl)-phenyl]-1,2,3,6-tetrahydropyridine] | – |
| 253 to 261 | c1ccc(C2CCCN2)c(-c2noc3ccccc23)c1 (centres unmarked) [Example 36(12), 2-[2-(1,2-benzisoxazol-3-yl)-phenyl]-pyrrolidine] | – |
| – | Cl.NC(Cc1ccc(F)cc1)c1ccccc1-c1noc2ccccc12 (stereo not drawn) [Example 36, 2-(1,2-Benzisoxazol-3-yl)-α-(4-fluorobenzyl)-benzenemethanamine Hydrochloride.] | BUR ED50 (SC) [1, 2]: 2.8 mg/kg |
| – | Cl.NC(c1ccccc1-c1noc2ccccc12)C1CC=CCC1 (stereo not drawn) [Example 37, 2-(1,2-Benzisoxazol-3-yl)-α-(3-cyclohexenyl)-benzenemethanamine Hydrochloride] | ED50 [1, 3]: 3.1 mg/kg |
